Assay results taken from US20070203109A1, “Compounds And Compositions For Treatment Of Cancer” (priority 2004, published 2007).
“Also recorded” adds a separate entry of the source. Read-outs that look alike come from different tables or passages of the source.

Experiments:
[1] = target: DT-Diaphorase (DTD) (Homo sapiens, UniProt P15559); assay: Suitability as substrate for DTD (activation by DTD); assay type: biochemical
Description: The results of these tests are set out in Table 2.

[2] = clinical; design: species or system human; conditions: in vivo; for half-life: iv
Experimental: RH-1 is activated by NAD(P)H: Quinone acceptor oxidoreductase (NQO1; DT-diaphorase, DTD). DTD is often over-expressed in lung, colon, liver and breast tumours. RH-1 is undergoing Phase I trial at the Christie Hospital, UK. The pharmacokinetic (PK) requirements of this trial required assays that detect nM levels of RH-1 in serum using LC-MS. The extraction and quantitation of RH-1 from human plasma was validated and a limit of detection of 1 ng/ml reached.
(§1) RH1 was administered intravenously on a daily schedule for 5 day periods following a dose escalation scheme. Treatment was repeated on a 21 day cycle. A dose escalation scheme was used to try to establish dose-limiting toxicity. Predicted toxicity includes myelosuppression, emesis, renal toxicity and local injection site irritation. Safety and tolerability were monitored each cycle. Anti-tumour response was assessed after each 2 cycles using RECIST criteria.
Patients lymphocytes exposed to RH1 on infusion were analysed using the comet-X assay, which detects DNA interstrand cross-links.

[3] = system: DNA of peripheral blood lymphocytes; assay: Comet-X assay of patients' peripheral blood lymphocytes in the Phase I trial; assay type: in vivo, human
Description: A modified version of the single cell gel electrophoresis comet assay, the Comet-X, specifically detects DNA cross-linking in individual cells and has been validated for clinical trial use. 9 patients have been treated with RH-1 and PMBCs (peripheral blood lymphocytes) isolated from pre-infusion and post infusion time points on both day 1 and day 5 of treatment were subjected to Comet-X assay (FIG. 2). From the data obtained, accumulative DNA damage appears to be occurring in PBMC's over the 5 day infusion period leading to significant DNA cross linking (30%) by day 5 (FIG. 3). Other PD (pharmacodynamic) assays used in the trial include assessment of DTD levels and activity and RFLP genotyping of the NQO1 gene.
(§2) The Comet assay is a sensitive method of detecting DNA breaks in single cells. The cells are embedded in agarose and spread onto microscope slides. After lysis and de-proteinisation, the cells are subjected to alkaline unwinding at high pH (12.5). The DNA becomes relaxed and unwinds at points where DNA single and double strand breaks occur. The cells are then finally subjected to micro-electrophoresis during which relaxed and damaged DNA migrates away from the nucleus resulting in the classic comet shape when visualised under microscopy. This migration of DNA is retarded when the DNA has been subjected to interstrand cross-linking by drugs such as RH1. In the comet-X assay used in this trial, control non-drug treated lymphocytes from the patient's pre-infusion are subjected to gamma radiation to introduce a fixed number of DNA breaks into each cell. This treatment results in a fixed amount of migration under electrophoresis quantified as the percentage (%) of DNA in the tail of the comet image. Patients lymphocytes exposed to RH1 on infusion are collected and irradiated with the same dose of gamma radiation as the control pre-infusion lymphocytes. It was expected that interstrand cross-links produced by RH1 will retard the migration of DNA during electrophoresis resulting in less DNA in the tail of the comet compared to the irradiation only controls. Results are expressed as % DNA cross linked.
To date 12 patients have been treated with RH1 and peripheral blood lymphocytes isolated from pre-infusion and post infusion time points on both day 1 and day 5 of treatment. These lymphocytes have been subjected to the Comet-X assay described above and the amount of DNA present in the tail of the comets following irradiation has been measured. Internal QC samples have been run each time a patients samples have been processed. The data has been pooled into exposure times (short 5-10 minutes, medium 40-120 minutes and long 4-24 hrs exposure) and dose cohorts, (1) 40-135 μg/m^2, (2) 200-326 μg/m^2, (3) 410-810 μg/m^2, and (4) […] ranges for ease of analysis.

[4] = system: DNA of human lymphocytes (PBLs); assay: RH1 drug dosimetry in human lymphocytes in vitro (Comet-X assay); assay type: cell-based
Experimental: Optimal DNA cross-linking is shown in the range 50 to 100 nM RH1.
as §2, with “It was expected that interstrand cross-links produced by RH1 will retard the migration of DNA during electrophoresis resulting in less DNA in the tail of the comet compared to the irradiation only controls.” left out, “linked. […]” for “linked.”

[5] = system: solid tumours; assay: Phase I clinical trial: safety, tolerability and anti-tumour response; assay type: in vivo, human
Description: The RH1 trial involved administering RH1 to patients having histologically proven solid tumours that were refractory to conventional treatment or for whom no conventional treatment exists. The WHO performance status of these patients was 0 or 1. WHO performance status is an indicator of a patients overall level of well being/activity. A WHO performance status of 0 means that the patient is fully active, able to carry out all normal activity, without restriction. A WHO performance status of 1 means the patient is restricted in physically strenuous activity but ambulatory and able to carry out work of a light or sedentary nature, e.g. light house work, office work.
as §1

[6] = system: skin biopsy lesions; assay: Comet-X assay on skin biopsy lesions; assay type: in vivo, human; conditions: highest cohort treated
[7] = physchem; conditions: 25 °C, aqueous buffer
[8] = physchem; conditions: buffer, pH 7

DT-Diaphorase (DTD), sequence (P15559 whole entry): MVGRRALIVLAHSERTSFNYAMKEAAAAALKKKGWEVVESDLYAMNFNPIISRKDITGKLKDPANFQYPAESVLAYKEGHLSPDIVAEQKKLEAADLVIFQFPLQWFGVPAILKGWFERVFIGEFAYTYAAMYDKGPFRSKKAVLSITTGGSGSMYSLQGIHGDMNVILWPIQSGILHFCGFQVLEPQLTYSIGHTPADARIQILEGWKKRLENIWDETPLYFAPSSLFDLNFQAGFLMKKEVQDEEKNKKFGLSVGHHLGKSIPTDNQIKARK

Question: What does the source list for `CO[C@@]12[C@H](COC(N)=O)C3=C(C(=O)C(C)=C(N)C3=O)N1C[C@@H]1N[C@@H]12` [Mitomycin C]?
Answer: DTD substrate [1]: Poor; DTD substrate ([1]; listed as mitomycin C): relatively poor substrate

Question: Which DTD substrate [1] does the source give for `CC1=C(N2CC2)C(=O)C(CO)=C(N2CC2)C1=O` [RH1, 2,5-diaziridinyl-3-hydroxymethyl-6-methyl-1,4-benzoquinone] here?
Answer: excellent substrate

Question: What about the DTD substrate ([1]; listed as RH-1) of the same compound?
Answer: good substrate

Question: What about the Clearance saturability ([2]; human) of the same compound?
Answer: did not appear to be saturable

Question: And the half-life ([2]; human, half-life (clearance from the blood))?
Answer: ~6 min

Question: What about the half-life ([2]; human, plasma half-life) of the same compound?
Answer: 2 to 12 min

Question: What about the “relationship between drug dose and area under the curve” value [2] of the same compound?
Answer: linear relationship

Question: And the “cross-linking on day 5 compared with day 1” value ([3]; all patients, statistical analysis)?
Answer: significantly more cross-linking

Question: What about the “DNA cross linking in PBMCs” value ([3]; by day 5 of the 5 day infusion period) of the same compound?
Answer: 30%

Question: What about the “% DNA in the tail (distribution peak)” value ([3]; day 1, similar to irradiated control) of the same compound?
Answer: 70-80%

Question: What about the “% DNA in the tail (distribution peak)” value ([3]; day 5, PBLC population) of the same compound?
Answer: 60-70%

Question: And the “degree of cross-linking in PBMCs, highest cohort” value ([3]; highest cohort (1080-1095 mg/m^2), day 5)?
Answer: 15-20%

Question: And the “DNA cross-linking, medium dose cohort” value ([3]; medium dose cohort, day 1 (particularly 4 hr, 24 hr samples) and throughout day 5)?
Answer: evidence of DNA cross-linking

Question: What about the “DNA cross-linking, low dose cohort” value ([3]; pooled data, low dose cohort, day 1 or day 5) of the same compound?
Answer: no DNA cross-linking

Question: And the “dose response of DNA cross-linking” value ([4]; PBLs treated 5-100 nM RH1, 2 hours, 37° C., concentration increased to 50 nM)?
Answer: increase in DNA cross-linking

Question: And the “RH1 concentration range of optimal DNA cross-linking” value ([4]; human lymphocytes, Comet-X, FIG. 1)?
Answer: 50 to 100 nM

Question: And the “toxicity, patient 5” value ([5]; patient 005, 265 μg/m^2/d)?
Answer: grade I thrombocytopenia; also recorded: grade I renal impairment

Question: What about the “toxicity, patient 007” value ([5]; patient 007, dose level 7) of the same compound?
Answer: evidence of toxicity

Question: What about the “treatment-related toxicity, first 4 patients” value ([5]; patients 001-004, 40-200 μg/m^2/d i.v. daily x5) of the same compound?
Answer: no treatment-related toxicity

Question: And the “Comet-X result on skin biopsy lesions” value [6]?
Answer: demonstrate efficacy

Question: And the solubility [7]?
Answer: > 500 µg/mL

Question: And the half-life [8]?
Answer: > 48 h

Question: With `O=C1C(NCCO)=C(N2CC2)C(=O)C(NCCO)=C1N1CC1` [BZQ, 3,6-diaziridinyl-2,5-bis-2(-hydroxyethylamino)1,4-benzoquinone] as the compound, how does the DTD substrate [1] read?
Answer: Poor

Question: With `Cn1c(/C=C/CO)c(CO)c2c1C(=O)C=C(N1CC1)C2=O` [E09, 3-HYDROXYMETHYL-5-AZIRIDINYL-1METHYL-2-[1H-INDOLE-4,7-DIONE]-PROPANOL] as the compound, how does the DTD substrate [1] read?
Answer: Moderate

Question: With `CCOC(=O)NC1=C(N2CC2)C(=O)C(NC(=O)OCC)=C(N2CC2)C1=O` [AZQ, 3,6-diaziridinyl-2,5-bis-(carboethoxyamino)1,4-benzoquinone] as the compound, how does the DTD substrate [1] read?
Answer: Moderate
